Test results: article PMC5349910, “Discovery of BPR1K871, a quinazoline based, multi-kinase inhibitor for the treatment of AML and solid tumors: Rational design, synthesis, in vitro and in vivo evaluation” (Oncotarget, 2016)
Entries after “also recorded” stand apart in the source; their conditions may differ. Where two headings read alike, the source gives them in different places.

How the values were obtained:
[1] = molecular target: T1, FLT3 (Homo sapiens, UniProt P36888); experiment: FLT3 kinase inhibition assay (Kinase-Glo); type: biochemical; settings: mean of at least two independent experiments, within ±15%
T1 construct: FLT3 kinase catalytic domain (residues Tyr567-Ser993); made in house; host or cells: Sf9 insect cells (baculovirus, pBac-PAK8-GST-FLT3-KD)
T1 sequence (P36888 567-993): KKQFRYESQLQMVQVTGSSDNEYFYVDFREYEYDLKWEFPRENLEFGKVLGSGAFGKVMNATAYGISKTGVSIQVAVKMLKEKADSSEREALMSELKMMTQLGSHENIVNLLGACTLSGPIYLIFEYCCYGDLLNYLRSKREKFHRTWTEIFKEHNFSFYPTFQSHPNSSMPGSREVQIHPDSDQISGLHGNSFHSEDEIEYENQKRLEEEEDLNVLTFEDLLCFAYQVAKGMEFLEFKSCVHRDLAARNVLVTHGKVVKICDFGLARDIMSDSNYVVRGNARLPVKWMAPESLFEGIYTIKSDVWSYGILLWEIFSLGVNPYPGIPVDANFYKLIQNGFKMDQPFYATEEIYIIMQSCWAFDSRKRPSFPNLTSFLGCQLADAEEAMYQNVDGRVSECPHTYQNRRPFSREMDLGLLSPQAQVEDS
Method: The FLT3 assay was conducted as previously described. Briefly, GST-FLT3-KD^WT containing the FLT3 kinase catalytic domain (residues Tyr567-Ser993) was expressed in Sf9 insect cells transfected with the baculovirus containing pBac-PAK8-GST-FLT3-KD plasmid.
Following incubation, 50 μL Kinase-Glo Plus Reagent (Promega, Madison, WI, USA) was added, and the mixture was incubated at 25°C for 20 min. A 70 μL aliquot of each reaction mixture was transferred to a black microliter plate, and luminescence was measured on a Wallac Vector 1420 multilabel counter (PerkinElmer, Shelton, CT, USA).

[2] = tested on: MV4-11 cells; experiment: MTS cell viability assay, MV4-11; type: cell-based, human; settings: MTS, 72 h, AML-FLT3-ITD (homozygous), supplement values ± SEM, read-out: MV4-11 EC50
Method: The MTS cell viability assay was conducted as previously described. The MOLM-13 human leukemia cell line was obtained from the German Resource Centre for Biological Material (DSMZ, Braunschweig, Germany); the MV4-11 cell line was purchased from the American Type Culture Collection (ATCC, Manassas, VA, USA). […] To determine cell viability after drug treatment, assay for MOLM-13 and MV4-11 was performed by seeding 10000 cells per well in a 96-well culture plate. […] After 16 h, cells were then treated with vehicle or various concentrations of compound in medium for 72 h. Viable cells were quantified using the MTS method (Promega, Madison, WI, USA) according to the manufacturer's recommended protocol. Results were determined by measuring the absorbance at 490 nm using a plate reader (Victor2; PerkinElmer, Shelton, CT, USA).

[3] = tested on: RS4-11 cells; experiment: Anti-proliferative activity, RS4-11; type: cell-based; settings: Homo sapiens, RS4-11; ALL-wt-FLT3 (homozygous); supplement values ± SEM; read-out: RS4-11 EC50
[4] = tested on: HCT-116 cells; experiment: Anti-proliferative activity, HCT-116; type: cell-based, human; settings: HCT-116; Human Colon Cancer; supplement values ± SEM; read-out: HCT-116 EC50
[5] = tested on: MKN-45 cells; experiment: Anti-proliferative activity, MKN-45; type: cell-based; settings: Human Gastric Cancer
[6] = tested on: FLT3 phosphorylation (pFLT3 at residue Y591); experiment: Western blot, FLT3 phosphorylation in MV4-11 cells; type: cell-based, human; settings: 2.0 h
Method: (§1) In order to understand the mode of action of BPR1K871, mechanistic studies in MV4-11 cell line using western blot analysis was carried out. MV4-11 cells were incubated with BPR1K871 in a dose-dependent manner for 2.0 h. Cell lysates were prepared and analyzed by immunoblotting for both FLT3 phosphorylation (pFLT3 at residue Y591) and AURKA phosphorylation (pAURKA at residue T288).
(§2) Western blot analysis was conducted as previously described. Primary antibodies against phospho-FLT3 (Tyr591) (#3461) and phospho-AURKA (Thr288) (#3079) were purchased from Cell Signaling Technology. The anti-FLT3 antibody (sc-480) and anti-AURKA antibody (07–648) were purchased from Santa Cruz Biotechnology and Upstate, respectively. The anti-β-actin rabbit polyclonal antibody (GTX110564) was purchased from GeneTex (CA, USA). The secondary antibodies horseradish peroxidase (HRP)-linked goat anti-rabbit IgG (111-035-003) were purchased from Jackson Immuno (West Grove, PA, USA). MV4-11 cells were incubated with compound BPR1K871 for 2.0 h at the indicated concentrations. Cell lysates were prepared and analyzed by immunoblotting. For AURKA analysis, the cell lysates were obtained from MV4-11 cells incubated for 16 h with 40 ngmL^-1 nocodazole, followed by drug treatment for 2.0 h at the indicated concentrations.

[7] = tested on: AURKA phosphorylation (pAURKA at residue T288); experiment: Western blot, AURKA phosphorylation in MV4-11 cells; type: cell-based, human; settings: nocodazole 16 h then drug 2.0 h
Method: as §1, §2

[8] = tested on: MV4-11 tumor xenograft; experiment: MV4-11 subcutaneous xenograft model; type: in vivo; settings: nude mice, iv 1, 3 or 10 mg/kg days 1–5 and 8–12; hydrochloride salt; p < 0.05
Method: Based on the potent in vitro anti-proliferative activity of BPR1K871, it was planned to investigate the in vivo efficacy. […] Subsequently, based on the PK study, we evaluated the acute toxicity of BPR1K871 in ICR mice (n = 3) by iv administration. […] Next, the antitumor activity of BPR1K871 was evaluated through IV route in MOLM-13 and MV4-11 xenograft models (Figure 5). For this, nude mice were inoculated subcutaneously with MOLM-13 and MV4-11 cells in the left flank. […] For MOLM-13 model, BPR1K871 was injected intravenously at 10 mg/kg daily for 5 days (on days 1–5); also BPR1K871 was intravenously administrated at 3 and 1 mg/kg once a day for two continuous weeks (on days 1–5 and 8–12). For MV4-11 model, BPR1K871 was intravenously administrated at 10, 3 and 1 mg/kg once a day for two continuous weeks (on days 1–5 and 8–12).

[9] = molecular target: T2, hERG (Homo sapiens, UniProt Q12809); experiment: hERG inhibition assay; settings: at 10 μM; performed by Ricerca Biosciences
T2 construct: Ricerca Biosciences, LLC
Method: Considering the in vivo efficacy in different cancer models, particularly in pancreatic cancer, it is worthwhile to further investigate BPR1K871; pancreatic and liver cancer are the most fatal of cancers and 5-year relative survival for patients with pancreatic cancer is reported to be just 8% [43, 44].
[45] hERG inhibition was performed by Ricerca Biosciences, LLC

[10] = molecular target: FLT3 (Homo sapiens, UniProt P36888); experiment: KINOMEScan, FLT3; settings: read-out: FLT3 % control
Target sequence in this assay (P36888 27-993): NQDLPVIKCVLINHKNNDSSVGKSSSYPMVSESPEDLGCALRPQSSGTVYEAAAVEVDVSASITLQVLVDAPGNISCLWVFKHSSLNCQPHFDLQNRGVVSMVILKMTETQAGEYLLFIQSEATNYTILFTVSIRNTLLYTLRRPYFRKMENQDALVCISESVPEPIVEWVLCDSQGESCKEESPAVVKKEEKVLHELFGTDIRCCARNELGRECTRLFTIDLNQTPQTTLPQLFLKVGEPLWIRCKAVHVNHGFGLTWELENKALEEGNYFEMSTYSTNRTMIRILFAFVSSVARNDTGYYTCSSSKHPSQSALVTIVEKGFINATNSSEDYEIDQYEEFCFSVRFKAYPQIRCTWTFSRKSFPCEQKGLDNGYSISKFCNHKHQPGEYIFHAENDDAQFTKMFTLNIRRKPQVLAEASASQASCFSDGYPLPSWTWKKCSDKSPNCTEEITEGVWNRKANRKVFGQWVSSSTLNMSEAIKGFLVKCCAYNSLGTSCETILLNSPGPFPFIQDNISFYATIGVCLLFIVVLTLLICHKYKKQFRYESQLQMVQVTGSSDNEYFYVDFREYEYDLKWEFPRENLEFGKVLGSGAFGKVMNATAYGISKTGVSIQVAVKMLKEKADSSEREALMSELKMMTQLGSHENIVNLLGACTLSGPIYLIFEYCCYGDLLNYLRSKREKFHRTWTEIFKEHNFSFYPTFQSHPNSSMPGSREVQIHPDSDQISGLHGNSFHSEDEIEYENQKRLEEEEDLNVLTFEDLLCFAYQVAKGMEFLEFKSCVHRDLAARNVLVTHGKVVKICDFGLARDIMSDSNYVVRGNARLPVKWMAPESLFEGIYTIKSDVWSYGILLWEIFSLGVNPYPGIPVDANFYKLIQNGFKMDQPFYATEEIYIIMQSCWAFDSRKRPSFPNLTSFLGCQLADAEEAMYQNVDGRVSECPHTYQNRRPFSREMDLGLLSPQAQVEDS

T2 sequence (Q12809 whole entry): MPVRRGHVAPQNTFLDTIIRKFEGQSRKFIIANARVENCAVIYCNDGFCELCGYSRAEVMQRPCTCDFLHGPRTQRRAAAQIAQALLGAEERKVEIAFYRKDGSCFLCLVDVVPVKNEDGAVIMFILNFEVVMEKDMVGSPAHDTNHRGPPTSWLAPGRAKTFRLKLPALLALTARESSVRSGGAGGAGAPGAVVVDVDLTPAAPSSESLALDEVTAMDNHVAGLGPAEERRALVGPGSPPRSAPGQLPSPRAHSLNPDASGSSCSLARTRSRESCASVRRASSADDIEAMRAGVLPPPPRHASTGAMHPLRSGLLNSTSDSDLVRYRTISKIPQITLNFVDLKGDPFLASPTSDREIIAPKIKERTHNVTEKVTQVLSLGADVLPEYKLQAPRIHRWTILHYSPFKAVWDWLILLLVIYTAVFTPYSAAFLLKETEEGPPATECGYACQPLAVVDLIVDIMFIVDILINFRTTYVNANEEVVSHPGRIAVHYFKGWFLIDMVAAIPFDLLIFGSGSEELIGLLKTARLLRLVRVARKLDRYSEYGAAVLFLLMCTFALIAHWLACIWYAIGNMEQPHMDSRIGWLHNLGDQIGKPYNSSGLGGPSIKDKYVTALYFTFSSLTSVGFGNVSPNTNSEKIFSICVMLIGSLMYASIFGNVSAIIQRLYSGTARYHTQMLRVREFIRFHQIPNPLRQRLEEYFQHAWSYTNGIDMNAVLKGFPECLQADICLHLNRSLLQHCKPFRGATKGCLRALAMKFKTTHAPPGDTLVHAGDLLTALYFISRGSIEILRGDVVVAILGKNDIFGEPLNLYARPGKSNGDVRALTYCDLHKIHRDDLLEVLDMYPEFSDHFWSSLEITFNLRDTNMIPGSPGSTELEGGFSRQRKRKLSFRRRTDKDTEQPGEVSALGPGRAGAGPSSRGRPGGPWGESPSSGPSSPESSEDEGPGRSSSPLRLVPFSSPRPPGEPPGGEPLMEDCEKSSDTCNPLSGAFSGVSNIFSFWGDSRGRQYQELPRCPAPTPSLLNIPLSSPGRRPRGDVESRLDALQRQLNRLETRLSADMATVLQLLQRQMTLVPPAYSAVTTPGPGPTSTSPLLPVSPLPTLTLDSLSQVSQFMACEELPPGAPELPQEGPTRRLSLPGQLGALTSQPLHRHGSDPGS

Work on `CN(C)CCCOc1ccc2c(NCCc3cnc(NC(=O)Nc4cccc(Cl)c4)s3)ncnc2c1` [BPR1K871, 1-(3-Chlorophenyl)-3-(5-(2-((7-(3-(dimethylamino)propoxy)quinazolin-4-yl)amino)ethyl)thiazol-2-yl)urea] yielded an IC50 [1] of 19 nM, an EC50 ([2]; Homo sapiens, MV4-11, 72 h) of about 5 nM and an EC50 ([2]; listed as 10 (BPR1K871)) of 4 nM. It also gave an EC50 [3] of 11 nM, an EC50 [4] of 141 nM and an EC50 [5] of 355 nM. For the same compound, the “concentration that completely inhibited formation of pFLT3 (Tyr591)” value [6] was 2 nM, the “concentration that completely inhibited formation of pAURKA (Thr288)” value [7] was 100 nM and the “growth / volume of MV4-11 tumor xenograft vs vehicle” value [8] was “significantly reduced; also recorded: inhibited”. It also gave a hERG inhibition [9] of 66% and a remaining binding at 1 µM [10] of 0.2%.
